In patent publication US20020111274A1, “1-alkyl-3-[1-(substituted phenyl) benzotriazol-6-yl] uracils” (BASF Aktiengesellschaft, priority 2000, published 2002):

Tests used:
Set-up in all cases: scale not given here
[1] = test system: ABUTH Velvetleaf; assay: Postemergence herbicidal evaluation, ABUTH; type: in vivo, Abutilon theophrasti, Medic.; conditions: postemergence spray, rated about two-three weeks after treatment
In short: (§1)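 Visual injury rating ~2–3 wk post-spray; replicate tests averaged. Two-week-old seedlings; foliar spray at 40 psi; 0.006–0.400 kg ai/ha in 80/20 acetone/water + 1.0% methylated seed oil.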

[2] = test system: AMBEL Ragweed, Common; assay: Postemergence herbicidal evaluation, AMBEL; type: in vivo, Ambrosia artemisifolia, L.; conditions: postemergence spray, rated about two-three weeks after treatment
In short: as §1

[3] = test system: CASOB Sicklepod; assay: Postemergence herbicidal evaluation, CASOB; type: in vivo, Cassia obtusifolia, L.; conditions: postemergence spray, rated about two-three weeks after treatment
In short: as §1

[4] = test system: CHEAL Lambsquarters, Common; assay: Postemergence herbicidal evaluation, CHEAL; type: in vivo, Chenopodium album, L.; conditions: postemergence spray, rated about two-three weeks after treatment
In short: as §1

[5] = test system: ECHOG Barnyardgrass; assay: Postemergence herbicidal evaluation, ECHOG; type: in vivo, Echinochloa crus-galli, (L.) Beau; conditions: postemergence spray, rated about two-three weeks after treatment
In short: as §1

[6] = test system: GALAP Galium; assay: Postemergence herbicidal evaluation, GALAP; type: in vivo, Galium aparine; conditions: postemergence spray, rated about two-three weeks after treatment
In short: as §1

[7] = test system: IPOHE Morningglory, Ivyleaf; assay: Postemergence herbicidal evaluation, IPOHE; type: in vivo, Ipomoea hederacea, (L.) Jacq.; conditions: postemergence spray, rated about two-three weeks after treatment
In short: as §1

[8] = test system: SETVI Foxtail, Green; assay: Postemergence herbicidal evaluation, SETVI; type: in vivo, Setaria viridis, (L.) Beau; conditions: postemergence spray, rated about two-three weeks after treatment
In short: as §1

[9] = test system: GLXMAW Soybean, Williams; assay: Postemergence herbicidal evaluation, GLXMAW; type: in vivo, Glycine max, (L.) Merr. cv Williams; conditions: postemergence spray, rated about two-three weeks after treatment
In short: as §1

[10] = test system: TRZAWR Wheat, Winter, cv Riband; assay: Postemergence herbicidal evaluation, TRZAWR; type: in vivo, Triticum aestivum; conditions: postemergence spray, rated about two-three weeks after treatment
In short: as §1

[11] = test system: ORYSAT Rice, Tebonnet; assay: Postemergence herbicidal evaluation, ORYSAT; type: in vivo, Oryza sativa, (L.); conditions: postemergence spray, rated about two-three weeks after treatment
In short: as §1

[12] = test system: ZEAMX Corn, Field; assay: Postemergence herbicidal evaluation, ZEAMX; type: in vivo, Zea mays, L. (Sammel-Bezeichnung); conditions: postemergence spray, rated about two-three weeks after treatment
In short: as §1

[13] = test system: ABUTH Velvetleaf; assay: Preemergence herbicidal evaluation, ABUTH; type: in vivo, Abutilon theophrasti, Medic.; conditions: preemergence
In short: (§2)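 First, seed is blended with potting soil and sown over roughly an inch of soil per cup. Next, the surface is sprayed with an aqueous acetone solution delivering about 0.013–0.800 kg/ha. Finally, cups are grown in the greenhouse and rated after 4–5 weeks.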

[14] = test system: AMBEL Ragweed, Common; assay: Preemergence herbicidal evaluation, AMBEL; type: in vivo, Ambrosia artemisifolia, L.; conditions: preemergence
In short: as §2

[15] = test system: CASOB Sicklepod; assay: Preemergence herbicidal evaluation, CASOB; type: in vivo, Cassia obtusifolia, L.; conditions: preemergence
In short: as §2

[16] = test system: CHEAL Lambsquarters, Common; assay: Preemergence herbicidal evaluation, CHEAL; type: in vivo, Chenopodium album, L.; conditions: preemergence
In short: as §2

[17] = test system: ECHOG Barnyardgrass; assay: Preemergence herbicidal evaluation, ECHOG; type: in vivo, Echinochloa crus-galli, (L.) Beau; conditions: preemergence
In short: as §2

[18] = test system: GALAP Galium; assay: Preemergence herbicidal evaluation, GALAP; type: in vivo, Galium aparine; conditions: preemergence
In short: as §2

[19] = test system: IPOHE Morningglory, Ivyleaf; assay: Preemergence herbicidal evaluation, IPOHE; type: in vivo, Ipomoea hederacea, (L.) Jacq.; conditions: preemergence
In short: as §2

[20] = test system: SETVI Foxtail, Green; assay: Preemergence herbicidal evaluation, SETVI; type: in vivo, Setaria viridis, (L.) Beau; conditions: preemergence
In short: as §2

[21] = test system: GLXMAW Soybean, Williams; assay: Preemergence herbicidal evaluation, GLXMAW; type: in vivo, Glycine max, (L.) Merr. cv Williams; conditions: preemergence
In short: as §2

[22] = test system: TRZAWR Wheat, Winter, cv Riband; assay: Preemergence herbicidal evaluation, TRZAWR; type: in vivo, Triticum aestivum; conditions: preemergence
In short: as §2

[23] = test system: ORYSAT Rice, Tebonnet; assay: Preemergence herbicidal evaluation, ORYSAT; type: in vivo, Oryza sativa, (L.); conditions: preemergence
In short: as §2

[24] = test system: ZEAMX Corn, Field; assay: Preemergence herbicidal evaluation, ZEAMX; type: in vivo, Zea mays, L. (Sammel-Bezeichnung); conditions: preemergence
In short: as §2

Cc1ccc(OCC(=O)O)cc1-n1nnc2cc(F)c(-n3c(=O)cc(C(F)(F)F)n(C)c3=O)cc21 [Example 37]
8.0: Postemergence herbicidal rating ZEAMX ([12]; 0.062 kg/ha) | SETVI herbicidal rating ([20]; rate 0.125 kg/ha)
5.0: Postemergence herbicidal rating ABUTH ([1]; 0.032 kg/ha) | IPOHE herbicidal rating ([19]; rate 0.125 kg/ha)
6.5: Postemergence herbicidal rating GLXMAW ([9]; 0.032 kg/ha)
0.5: Postemergence herbicidal rating ORYSAT ([11]; 0.008 kg/ha)
1.0: Postemergence herbicidal rating ORYSAT ([11]; 0.016 kg/ha)
0.0: Postemergence herbicidal rating ABUTH ([1]; 0.008 kg/ha) | Postemergence herbicidal rating AMBEL ([2]; 0.008 kg/ha) | Postemergence herbicidal rating CASOB ([3]; 0.008 kg/ha) | Postemergence herbicidal rating CASOB ([3]; 0.016 kg/ha) | Postemergence herbicidal rating CASOB ([3]; 0.032 kg/ha) | Postemergence herbicidal rating CASOB ([3]; 0.062 kg/ha) | Postemergence herbicidal rating CHEAL ([4]; 0.008 kg/ha) | Postemergence herbicidal rating CHEAL ([4]; 0.016 kg/ha) | Postemergence herbicidal rating ECHCG ([5]; 0.008 kg/ha) | Postemergence herbicidal rating ECHCG ([5]; 0.016 kg/ha) | Postemergence herbicidal rating GALAP ([6]; 0.008 kg/ha) | Postemergence herbicidal rating GALAP ([6]; 0.016 kg/ha) | Postemergence herbicidal rating GALAP ([6]; 0.032 kg/ha) | Postemergence herbicidal rating SETVI ([8]; 0.008 kg/ha) | Postemergence herbicidal rating SETVI ([8]; 0.016 kg/ha) | ABUTH herbicidal rating ([13]; rate 0.016 kg/ha) | ABUTH herbicidal rating ([13]; rate 0.032 kg/ha) | AMBEL herbicidal rating ([14]; rate 0.016 kg/ha) | AMBEL herbicidal rating ([14]; rate 0.032 kg/ha) | AMBEL herbicidal rating ([14]; rate 0.062 kg/ha) | CASOB herbicidal rating ([15]; rate 0.016 kg/ha) | CASOB herbicidal rating ([15]; rate 0.032 kg/ha) | CASOB herbicidal rating ([15]; rate 0.062 kg/ha) | CASOB herbicidal rating ([15]; rate 0.125 kg/ha) | CHEAL herbicidal rating ([16]; rate 0.062 kg/ha) | ECHCG herbicidal rating ([17]; rate 0.016 kg/ha) | ECHCG herbicidal rating ([17]; rate 0.032 kg/ha) | ECHCG herbicidal rating ([17]; rate 0.062 kg/ha) | ECHCG herbicidal rating ([17]; rate 0.125 kg/ha) | GALAP herbicidal rating ([18]; rate 0.016 kg/ha) | GALAP herbicidal rating ([18]; rate 0.032 kg/ha) | GALAP herbicidal rating ([18]; rate 0.062 kg/ha) | GALAP herbicidal rating ([18]; rate 0.125 kg/ha) | IPOHE herbicidal rating ([19]; rate 0.016 kg/ha) | IPOHE herbicidal rating ([19]; rate 0.032 kg/ha) | IPOHE herbicidal rating ([19]; rate 0.062 kg/ha) | SETVI herbicidal rating ([20]; rate 0.016 kg/ha) | SETVI herbicidal rating ([20]; rate 0.032 kg/ha) | SETVI herbicidal rating ([20]; rate 0.062 kg/ha) | GLXMAW herbicidal rating ([21]; rate 0.016 kg/ha) | GLXMAW herbicidal rating ([21]; rate 0.032 kg/ha) | GLXMAW herbicidal rating ([21]; rate 0.062 kg/ha) | GLXMAW herbicidal rating ([21]; rate 0.125 kg/ha) | TRZAWR herbicidal rating ([22]; rate 0.016 kg/ha) | TRZAWR herbicidal rating ([22]; rate 0.032 kg/ha) | TRZAWR herbicidal rating ([22]; rate 0.062 kg/ha) | TRZAWR herbicidal rating ([22]; rate 0.125 kg/ha) | ORYSAT herbicidal rating ([23]; rate 0.016 kg/ha) | ORYSAT herbicidal rating ([23]; rate 0.032 kg/ha) | ORYSAT herbicidal rating ([23]; rate 0.062 kg/ha) | ORYSAT herbicidal rating ([23]; rate 0.125 kg/ha) | ZEAMX herbicidal rating ([24]; rate 0.016 kg/ha) | ZEAMX herbicidal rating ([24]; rate 0.032 kg/ha) | ZEAMX herbicidal rating ([24]; rate 0.062 kg/ha) | ZEAMX herbicidal rating ([24]; rate 0.125 kg/ha)
7.0: Postemergence herbicidal rating SETVI ([8]; 0.032 kg/ha) | Postemergence herbicidal rating GLXMAW ([9]; 0.062 kg/ha) | Postemergence herbicidal rating TRZAWR ([10]; 0.062 kg/ha) | Postemergence herbicidal rating ZEAMX ([12]; 0.008 kg/ha)
2.0: Postemergence herbicidal rating ECHCG ([5]; 0.032 kg/ha) | Postemergence herbicidal rating GALAP ([6]; 0.062 kg/ha)
3.5: Postemergence herbicidal rating GLXMAW ([9]; 0.008 kg/ha) | Postemergence herbicidal rating TRZAWR ([10]; 0.008 kg/ha) | Postemergence herbicidal rating ORYSAT ([11]; 0.032 kg/ha)
5.5: Postemergence herbicidal rating TRZAWR ([10]; 0.016 kg/ha) | Postemergence herbicidal rating TRZAWR ([10]; 0.032 kg/ha)
9.0: Postemergence herbicidal rating ABUTH ([1]; 0.062 kg/ha) | Postemergence herbicidal rating AMBEL ([2]; 0.032 kg/ha) | Postemergence herbicidal rating AMBEL ([2]; 0.062 kg/ha) | Postemergence herbicidal rating IPOHE ([7]; 0.016 kg/ha) | Postemergence herbicidal rating IPOHE ([7]; 0.032 kg/ha) | Postemergence herbicidal rating IPOHE ([7]; 0.062 kg/ha) | Postemergence herbicidal rating SETVI ([8]; 0.062 kg/ha) | ABUTH herbicidal rating ([13]; rate 0.062 kg/ha) | ABUTH herbicidal rating ([13]; rate 0.125 kg/ha) | CHEAL herbicidal rating ([16]; rate 0.125 kg/ha)
4.0: Postemergence herbicidal rating AMBEL ([2]; 0.016 kg/ha) | Postemergence herbicidal rating CHEAL ([4]; 0.032 kg/ha) | Postemergence herbicidal rating CHEAL ([4]; 0.062 kg/ha) | Postemergence herbicidal rating GLXMAW ([9]; 0.016 kg/ha)
3.0: Postemergence herbicidal rating ABUTH ([1]; 0.016 kg/ha) | Postemergence herbicidal rating ECHCG ([5]; 0.062 kg/ha) | Postemergence herbicidal rating IPOHE ([7]; 0.008 kg/ha) | AMBEL herbicidal rating ([14]; rate 0.125 kg/ha)
7.5: Postemergence herbicidal rating ORYSAT ([11]; 0.062 kg/ha) | Postemergence herbicidal rating ZEAMX ([12]; 0.016 kg/ha) | Postemergence herbicidal rating ZEAMX ([12]; 0.032 kg/ha)
